In patent publication US20080318837A1, “Pharmaceutical Formation For Increased Epithelial Permeability of Glucose-Regulating Peptide” (priority 2003, published 2008):

Legend:
[1] = intraduodenally administered to rats; cited from earlier work
ciliary motility = conditions: cited from earlier work
[2] = test system: EpiAirway tracheal/bronchial epithelial cell membrane; assay: Transepithelial electrical resistance (TEER/TER), EpiAirway model; assay type: cell-based; conditions: Table 6 formulations, 2 mg/mL GLP-1
Method: Triplicate samples of each formulation and controls were evaluated using the EpiAirway System in vitro model tracheal/bronchial epithelial cell membrane inserts by MatTek Corp. (Ashland, Mass.), catalog #Air-100.
EpiAirway™ culture membranes were received the day before the experiments started. They were shipped in phenol red-free and hydrocortisone-free Dulbecco's Modified Eagle's Medium (DMEM). Each tissue insert was placed into a well of a 6 well plate containing 0.9 ml of serum free DMEM. The membranes were then cultured for 24 hrs at 37° C./5% CO2 to allow tissues to equilibrate. […]
TEER measurements were read using a Tissue Resistance Measurement Chamber connected to an Epithelial Voltohmeter with the electrode leads, both from World Precision Instruments. First, background TEER was read for each insert on the day the experiment began. After TEER was read, 1 ml fresh media was placed in the bottom of each well in a 6-well plate. […]
The electrodes and a tissue culture blank insert were equilibrated for at least 20 min in fresh media with the power off prior to checking calibration. The background resistance was measured with 1.5 ml media in the Endohm tissue chamber and 300 μl media in a blank Millicell-CM insert. […] For each TEER determination, 300 μl media was added to the insert followed by a 20 min incubation at RT before placement in the Endohm chamber to read TEER. […]

[3] = test system: EpiAirway tracheal/bronchial epithelial cell membrane; assay: LDH cytotoxicity (cell death) assay, EpiAirway model; assay type: cell-based
Method: Fresh, cell-free media was used as a blank. 50 μl substrate solution (12 ml Assay Buffer added to a fresh bottle of Substrate Mix, made according to the kit) was added to each well and the plates were incubates for 30 min at RT in the dark.

[4] = test system: EpiAirway tracheal/bronchial epithelial cell membrane
Method: Triplicate samples of each formulation and controls were evaluated using the EpiAirway System in vitro model tracheal/bronchial epithelial cell membrane inserts by MatTek Corp. (Ashland, Mass.), catalog #Air-100. […] The epithelial cells are grown on porous membrane-bottomed cell culture inserts at an air-liquid interface, which results in differentiation of the cells to a highly polarized morphology. The apical surface is ciliated with a microvillous ultrastructure and the epithelium produces mucus (the presence of mucin has been confirmed by immunoblotting). The inserts have a diameter of 0.875 cm, providing a surface area of 0.6 cm^2. The cells are plated onto the inserts at the factory approximately three weeks before shipping.
EpiAirway™ culture membranes were received the day before the experiments started. They were shipped in phenol red-free and hydrocortisone-free Dulbecco's Modified Eagle's Medium (DMEM). […]
The cell viability of each tissue culture insert was tested by MTT assay. Cell viability was assessed using the MTT assay (MTT-100, MatTek kit). […] The optical density of the samples was measured at 550 nm on a μQuant optical density plate reader using KCJr software.
The MTT percentage was calculated by dividing the measured MTT value for each formulation by the MTT value of the control formulation multiplied by 100. […]

[5] = after feeding to rats; cited from earlier work
[6] = aqueous solution, physiologic pH; cited from earlier work
aminopeptidases = conditions: cited from earlier work

For “9-desglycinamide, 8-arginine vasopressin [DGAVP]”, the “bioavailability increase with 1% (w/v) polycarbophil vs aqueous solution” value [1] is given as 3-5 fold.

In the case of “2-alkyl-4-hydroxyquinolines [pyo compound]”, the “concentration producing ciliostasis / inhibiting ciliary motility” value (ciliary motility) is given as 50 µg/mL.

With “Octylphenolpoly(ethyleneglycolether)x [LDH Control]” the “% TEER Reduction” value [2] was 100%, the “% LDH” value [3] was 100% and the “% MTT” value [4] was 1%.

For Phaseolus vulgaris hemagglutinin, the oral bioavailability [5] is listed as “more than 10%”.

For NCCN(CCN)/[N+]([O-])=N/O [diethylenetriamine/NO], the “NO release rate (time)” value [6] is listed as “approximately 20 hours”.

For CC(C)CC(N)B(O)O (stereo not shown) [boro-leucine], the “enzyme inhibition, times more effective than bestatin” value (aminopeptidases) is given as “more than 100 times” and the “enzyme inhibition, times more effective than puromycin” value (aminopeptidases) is given as “more than 1000 times”.

In the case of CCN(CC)/[N+]([O-])=N/O.CCNCC [diethylamine/NO], the “NO release rate (time)” value [6] is listed as under 3 min.
